The species named for experiment [1] is Homo sapiens. The experiment is described as follows: Activation of recombinant His-tagged human cytosolic GPX4 U46C mutant expressed in Escherichia coli M15 assessed as increase in oxidized glutathione-mediated oxidation of NADPH to NADP+ at 200 uM using tert-butyl hydroperoxide as substrate preincubated for 5 mins followed by substrate addition measured for 6 mins by glutathione reductase enzyme coupled fluorescence assay relative to control.

The species named for experiment [2] is Homo sapiens. Kind of experiment: Activation of recombinant His-tagged human cytosolic GPX4 U46C mutant expressed in Escherichia coli M15 assessed as increase in oxidized glutathione-mediated oxidation of NADPH to NADP+ using tert-butyl hydroperoxide as substrate preincubated for 5 mins followed by substrate addition measured for 6 mins by glutathione reductase enzyme coupled fluorescence assay.

For experiment [3], the species on record is Homo sapiens. The experiment is described as follows: Activation of recombinant His-tagged human cytosolic GPX4 U46C mutant expressed in Escherichia coli M15 assessed as increase in oxidized glutathione-mediated oxidation of NADPH to NADP+ at 0.4 to 250 uM using tert-butyl hydroperoxide as substrate preincubated for 5 mins followed by substrate addition measured for 6 mins by glutathione reductase enzyme coupled fluorescence assay relative to control.

The nature of experiment [4]: Binding affinity to recombinant His-tagged human cytosolic GPX4 U46C mutant expressed in Escherichia coli M15 by SPR analysis. (Surface plasmon resonance follows binding to a sensor surface in real time, without labels.)
For experiment [5], the species on record is Homo sapiens. Kind of experiment: Activation of recombinant human GPX4 D21A/U46C double mutant expressed in Escherichia coli M15 assessed as increase in oxidized glutathione-mediated oxidation of NADPH to NADP+ using tert-butyl hydroperoxide as substrate preincubated for 5 mins followed by substrate addition measured for 6 mins by glutathione reductase enzyme coupled fluorescence assay relative to GPX4 U46C mutant control.

The species named for experiment [6] is Homo sapiens. The experiment is described as follows: Activation of recombinant human GPX4 D23A/U46C double mutant expressed in Escherichia coli M15 assessed as increase in oxidized glutathione-mediated oxidation of NADPH to NADP+ using tert-butyl hydroperoxide as substrate preincubated for 5 mins followed by substrate addition measured for 6 mins by glutathione reductase enzyme coupled fluorescence assay relative to GPX4 U46C mutant control.

Experiment [7] is filed under the species Homo sapiens. Kind of experiment: Activation of recombinant human GPX4 D21A/D23A/U46C mutant expressed in Escherichia coli M15 assessed as increase in oxidized glutathione-mediated oxidation of NADPH to NADP+ using tert-butyl hydroperoxide as substrate preincubated for 5 mins followed by substrate addition measured for 6 mins by glutathione reductase enzyme coupled fluorescence assay relative to GPX4 U46C mutant control.

A short description of experiment [8]: Binding affinity to recombinant human GPX4 D21A/D23A double mutant expressed in Escherichia coli M15 by SPR analysis.
In experiment [9] the target is Phospholipid hydroperoxide glutathione peroxidase GPX4 (Mus musculus) (UniProt O70325). The experiment is described as follows: Activation of GPX4 in MEF assessed as increase in oxidized glutathione-mediated oxidation of NADPH to NADP+ using tert-butyl hydroperoxide as substrate preincubated for 5 mins followed by substrate addition measured for 6 mins by glutathione reductase enzyme coupled fluorescence assay. It is filed as cell-based.
Chain of Phospholipid hydroperoxide glutathione peroxidase GPX4 (Mus musculus) (O70325 whole entry): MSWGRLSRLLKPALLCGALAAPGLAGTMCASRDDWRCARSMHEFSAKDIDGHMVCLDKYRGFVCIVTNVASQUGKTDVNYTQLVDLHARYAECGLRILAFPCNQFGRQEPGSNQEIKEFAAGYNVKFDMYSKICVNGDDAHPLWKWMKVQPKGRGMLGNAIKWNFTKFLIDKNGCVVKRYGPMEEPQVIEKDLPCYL

Experiment [10] can be described thus: Zinc chelating activity in presence of ZnSO4 after 10 mins by crystal violet staining based assay.
Experiment [11] can be described thus: Iron chelating activity assessed as compound-Fe2+ complex formation after 10 mins by Prussian blue assay.
Experiment [12] addresses Phospholipid hydroperoxide glutathione peroxidase GPX4 (Mus musculus) (UniProt O70325). The experiment is described as follows: Activation of GPX4 in MEF assessed as increase in […] protection against CHOOH-induced cell death at 200 uM. It is filed as cell-based.
A short description of experiment [13]: Antioxidant activity assessed as DPPH radical scavenging activity at 500 uM. It is filed as functional. For orientation: Loss of DPPH colour is used to gauge radical scavenging.

The text below walks through data of ChEMBL document CHEMBL4308834, “Novel Allosteric Activators for Ferroptosis Regulator Glutathione Peroxidase 4” (J Med Chem, 2018).

The term Emax denotes the greatest response seen or fitted, relative to the assay's reference. By Kd is commonly meant the equilibrium constant for the complex coming apart.

Molecules are shown by their SMILES. Activity calls are given as the source filed them. No cut-off for these calls is given here.

As to `O=S(=O)(NCCO)c1ccc(NC(=S)NCc2ccc(Cl)cc2)cc1`, in experiment [1], the Activity was under 115%.
`NCCNS(=O)(=O)c1ccc(NC(=S)NCc2ccc(Cl)cc2)cc1`: the Activity in [1] is under 115%.
With `CCNS(=O)(=O)c1ccc(NC(=S)NC2CCCC2)cc1`, in [1], the Activity was under 115%.
On to `CCNC(=S)Nc1ccc(S(=O)(=O)NCCN)cc1`, for which, in experiment [1], the Activity is under 115%.
For `CN1CCN(C(S)=Nc2ccc(S(N)(=O)=O)cc2)CC1`, in experiment [2], the Activity result was “Dose-dependent effect” and the EC150 turned out to be 285 µM. Further, the Emax in experiment [3] amounted to 200%. Further, the Activity in experiment [1] was 115%.
As to `NCCCNS(=O)(=O)c1ccc(NC(=S)NC2CCCC2)cc1`, in experiment [2], the EC150 amounted to 301 µM. Moreover, in experiment [3], the maximal effect (Emax) is 214%. Moreover, the Activity in experiment [1] amounted to 121%.
With `NCCNS(=O)(=O)c1ccc(NC(=S)NC2CCCCC2)cc1`, the Activity in experiment [1] is under 115%.
Turning to `NCCCCNS(=O)(=O)c1ccc(NC(=S)NC2CCCC2)cc1`, in experiment [1], the Activity was under 115%.
Regarding `NCCNS(=O)(=O)c1ccc(NC(=S)NC2CCCCCC2)cc1`, in [1], the Activity is under 115%.
As to `NS(=O)(=O)c1ccc(NC(=S)NCCO)cc1`, in [2], the Activity entry was “Dose-dependent effect” and the EC150 was determined as 147 µM. In addition, the Emax in [3] was determined as 225%. Also, in [1], the Activity stood at 167%.
`CNCCNS(=O)(=O)c1ccc(NC(=S)NC2CCCC2)cc1`: in [2], the EC150 is 121 µM. Besides, the Emax in [3] worked out at 209%. Moreover, the Activity in [1] was 167%.
Regarding `NS(=O)(=O)c1ccc(NC(S)=NCc2ccccc2)cc1`, in experiment [2], the Activity result was “Dose-dependent effect” and the EC150 was determined as 255 µM. Besides, the Emax in [3] was found to be 300%. The Activity in [1] is 129%.
With `NCCNS(=O)(=O)c1ccc(NC(=S)NC2CCCC2)cc1`, the EC150 in experiment [2] is 20 µM; in experiment [5], 367 µM; in experiment [6], 235 µM; in experiment [7], 382 µM; in experiment [9], 61 µM. Further, in [3], the Emax was 279%. In addition, the dissociation constant Kd was found to be 19 µM in [4] and 374 µM in [8]. Also, the Activity was 219% in experiment [1] and “Dose-dependent effect” in experiment [9]. Moreover, the outcome in experiment [10], in experiment [11] and in [13] was inactive. Besides, the outcome in experiment [12] was Active.
In the case of `CC(C)(C)NC(=S)Nc1ccc(S(=O)(=O)NCCN)cc1`, the EC150 in experiment [2] is 29 µM. In addition, in experiment [3], the Emax turned out to be 437%. Moreover, in [1], the Activity was found to be 318%.
On to `O=S(=O)(NCCO)c1ccc(NC(=S)NC2CCCC2)cc1`, for which the Activity in experiment [1] was under 115%.
